What was measured:
BDNF = assay: Effect on BDNF protein in the rat dorsal striatum, quinolinic acid lesion model; format: in vivo; conditions: 10 mg/kg once a day for 7 days
Method: Protocol. Experimental day 1: Rats were deeply anesthetized with isoflurane and each rat received a unilateral infusion of 0.25 μl of 50 mM quinolinic acid (QA) in the dorsal striatum (12.5 nmoles of QA on the left or right hemisphere). The dorsal striatum contralateral to the QA infusion on each rat received a control infusion of 0.25 μl PBS (control side). Some animals were dosed S.C. with vehicle (n=5) or 10 mg/Kg Compound I-2 (n=6) about 30 minutes after QA infusion. Experimental days 2-8: Rats were dosed every 24 h P.O. with Vehicle or 10 mg/Kg Compound I-2. About 24 h after the last dosing of vehicle or Compound I-2, rats were anesthetized, perfused with PBS followed by perfusion with 4% Paraformaldehyde in PBS; brain tissue was collected and placed in a falcon tube covered with 4% Paraformaldehyde (PAF) in PBS for about 14 h at 4° C. and then replaced by PBS with 30% sucrose solution for about 48 h. Brain tissue was cut in 40 μm coronal slices and stored in PBS at 4° C. […] Images from the dorsomedial area around the QA lesion or equivalent area on the control hemisphere were taken using confocal fluorescence microscopy. Images were analyzed using imageJ software to determine the average BDNF intensity in NeuN positive cells.

rats [1] = assay: Acetic acid test - abdominal cramps; format: in vivo, rat; conditions: Compound I-2 p.o. 10 mg/kg; 120 minutes after treatment
Method: Acetic Acid Test. Abdominal contraction was induced by intraperitoneal injection of 0.6% acetic acid solution in rats (10 mL/kg). The number of writhing (a twisting or contorting of the body due to pain) was recorded from the 5th to the 15th minute after injection.
(§1) Testing: 120 minutes after treatment. N=4/model/test. Results are expressed for each group as a percentage of activity calculated from the mean value of the vehicle-treated animals and compared to naïve animals, control paw, or cut-off value, depending on the test.

Healthy rats [2] = assay: Healthy rats - tail flick test; format: in vivo, rat; conditions: Compound I-2 p.o. 10 mg/kg; 120 minutes after treatment
Method: Tail Flick Test. A radiant heat was applied on the tail. When the rat felt discomfort, it reacted by a sudden tail movement (tail flick) which automatically stopped the stimulation and the timer for the measurement by the animal reaction time or nociceptive reaction latency (period from the beginning of the stimulation until detection of the response of the animal). A cut-off was previously fixed at 10 sec in order to prevent tissue damage.
as §1

rats [3] = assay: TNBS - colorectal distension; format: in vivo, rat; conditions: Compound I-2 p.o. 10 mg/kg; 120 minutes after treatment
Method: TNBS. Surgery: Colonic sensitivity was induced by surgical administration of TNBS seven days before behavioral testing (D−7). Fasted (overnight) animals underwent surgery. Briefly, under anesthesia (Xylazine 10 mg/kg i.p., ketamine 60 mg/kg i.p.), injection of TNBS (50 mg/kg, 1 mL/kg) was performed into the proximal part of the colon (1 cm from the caecum). After surgery, animals returned in their home cages in a regulated environment, and were fed ad libitum until D−1 (animals were fasted 24 hours before distention). Colorectal distension: Seven days (D0) after TNBS injection, colonic sensitivity was assessed on fasted (overnight) animals by measuring the intra-colonic pressure required to induce a behavioral response during colonic distension. To perform distension, a 5-cm balloon was gently inserted into the colon of vigil animals at 10 cm from the anus and the catheter was taped to the base of the tail. […] Pain behavior was characterized by an elevation of the hind part of the animals body and a clearly visible abdominal contraction corresponding to a severe cramp. Two determinations were performed.
as §1

Healthy rats [4] = assay: Healthy rats - paw pressure test; format: in vivo, rat; conditions: Compound I-2 p.o. 10 mg/kg; 120 minutes after treatment
Method: Paw Pressure Test. Static mechanical hyperalgesia is measured. This test requires the application of an increasing pressure on the hind paws between a flat surface and a blunt pointer. To evaluate the analgesic action of a compound, one hind paw of the animal was inflamed by an injection or injured by ligation, while the other hind paw was not injured or inflamed. The apparatus exerted a steadily increasing force on the hind paws. The reaction threshold was determined as the pressure (g) required to elicit paw withdrawal and/or vocalization. The animals were gently handled by the experimenter and static mechanical hyperalgesia were assessed two times for both hind paws.
as §1

Fc1ccccc1Cn1nc(-c2nc(C(F)(F)F)n[nH]2)c2cccnc21 [Compound I-2]
BDNF averaged intensity in NeuN positive cells around the QA lesion, as compared to vehicle treatment (BDNF): increase
BDNF averaged intensity in NeuN positive cells in the dorsomedial striatum without a lesion (control side), as compared to vehicle treatment (BDNF): increase
% of activity vs. vehicle, acetic acid test abdominal cramps (rats [1]): 59%
% of activity vs. vehicle, healthy rats tail flick test (Healthy rats [2]): 15%
% of activity vs. vehicle, TNBS colorectal distension (rats [3]): 43%
% of activity vs. vehicle, healthy rats paw pressure test (Healthy rats [4]): −10%

Reference: US11690828B2, “Treatment of CNS diseases with sGC stimulators” (Cyclerion Therapeutics, Inc., priority 2016, dated 2023)
